Laboratory results: patent US20130065818A1, “Arylamide Compounds And Compositions And Uses Thereof” (POLYMEDIX, priority 2006, published 2013)
≈ marks a conversion by molar mass, not a printed value. Where two headings read alike, the source gives them in different places.

Legend:
[1] = tested on: Staphylococcus epidermidis (Coagulase-negative Staphylococcus) fluoroquinolone-resistant; experiment: MIC, 25 ocular isolates, broth microdilution (Example 8); assay type: cell-based
Summary of the method: (§1)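 Broth microdilution in Mueller-Hinton broth, polypropylene plates, inoculum from 0.5 McFarland suspension diluted 0.05 ml into 5 ml; final test agent 64–0.0625 μg/ml (128–0.125 μg/ml for P. aeruginosa) in 0.01% acetic acid, 0.2% BSA diluent. Incubated 37° C overnight; MIC read visually as lowest concentration inhibiting visible growth.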

Pseudomonas aeruginosa = experiment: as above; assay type: cell-based
Summary of the method: as §1

N=C(N)NCCCCC(=O)Nc1cc(C(F)(F)F)cc(NC(=O)c2cnc(C(=O)Nc3cc(C(F)(F)F)cc(NC(=O)CCCCNC(=N)N)c3SCCN)cn2)c1SCCN [Oligomer 5]
MIC50 ([1]; 25 isolates, Row 13): 0.125 µg/mL (≈ 0.136 µM) | MIC90 ([1]; 25 isolates, Row 22): 0.25 µg/mL (≈ 0.273 µM) | Range of MICs ([1]; 25 isolates, Summary of Results, <0.0625 was Replaced with 0.03125): 0.03125 to 0.5 µg/mL | MIC ([1]; Staphylococcus epidermidis, 25 ocular isolates, read-out: Median MIC): ≤ 0.25 µg/mL | MIC ([1]; Staphylococcus epidermidis, isolate 1—E515, read-out: MIC): 0.125 µg/mL (≈ 0.136 µM) | MIC ([1]; Staphylococcus epidermidis, isolate 2—E514, read-out: MIC): 0.125 µg/mL (≈ 0.136 µM) | MIC ([1]; Staphylococcus epidermidis, isolate 3—E513, read-out: MIC): 0.125 µg/mL (≈ 0.136 µM) | MIC ([1]; Staphylococcus epidermidis, isolate 4—E510, read-out: MIC): 0.125 µg/mL (≈ 0.136 µM) | MIC ([1]; Staphylococcus epidermidis, isolate 5—E509, read-out: MIC): 0.125 µg/mL (≈ 0.136 µM) | MIC ([1]; Staphylococcus epidermidis, isolate 6—E508, read-out: MIC): 0.125 µg/mL (≈ 0.136 µM) | MIC ([1]; Staphylococcus epidermidis, isolate 7—E505, read-out: MIC): 0.125 µg/mL (≈ 0.136 µM) | MIC ([1]; Staphylococcus epidermidis, isolate 8—E503, read-out: MIC): 0.125 µg/mL (≈ 0.136 µM) | MIC ([1]; Staphylococcus epidermidis, isolate 9—E502, read-out: MIC): 0.25 µg/mL (≈ 0.273 µM) | MIC ([1]; Staphylococcus epidermidis, isolate 10—E499, read-out: MIC): 0.25 µg/mL (≈ 0.273 µM) | MIC ([1]; Staphylococcus epidermidis, isolate 11—E498, read-out: MIC): 0.125 µg/mL (≈ 0.136 µM) | MIC ([1]; Staphylococcus epidermidis, isolate 12—E494, read-out: MIC): 0.125 µg/mL (≈ 0.136 µM) | MIC ([1]; Staphylococcus epidermidis, isolate 13—E493, read-out: MIC): 0.125 µg/mL (≈ 0.136 µM) | MIC ([1]; Staphylococcus epidermidis, isolate 14—E485, read-out: MIC): 0.125 µg/mL (≈ 0.136 µM) | MIC ([1]; Staphylococcus epidermidis, isolate 15—E487, read-out: MIC): < 0.0625 µg/mL | MIC ([1]; Staphylococcus epidermidis, isolate 16—E486, read-out: MIC): 0.125 µg/mL (≈ 0.136 µM) | MIC ([1]; Staphylococcus epidermidis, isolate 17—E480, read-out: MIC): 0.125 µg/mL (≈ 0.136 µM) | MIC ([1]; Staphylococcus epidermidis, isolate 18—E475, read-out: MIC): 0.125 µg/mL (≈ 0.136 µM) | MIC ([1]; Staphylococcus epidermidis, isolate 19—E471, read-out: MIC): 0.125 µg/mL (≈ 0.136 µM) | MIC ([1]; Staphylococcus epidermidis, isolate 20—E458, read-out: MIC): 0.125 µg/mL (≈ 0.136 µM) | MIC ([1]; Staphylococcus epidermidis, isolate 21—E452, read-out: MIC): 0.5 µg/mL (≈ 0.545 µM) | MIC ([1]; Staphylococcus epidermidis, isolate 22—E450, read-out: MIC): 0.125 µg/mL (≈ 0.136 µM) | MIC ([1]; Staphylococcus epidermidis, isolate 23—E440, read-out: MIC): 0.125 µg/mL (≈ 0.136 µM) | MIC ([1]; Staphylococcus epidermidis, isolate 24—E446, read-out: MIC): < 0.0625 µg/mL | MIC ([1]; Staphylococcus epidermidis, isolate 25—E444, read-out: MIC): 0.25 µg/mL (≈ 0.273 µM) | MIC ([1]; Staphylococcus epidermidis, n=25 per group, read-out: Median MIC): 0.125 µg/mL (≈ 0.136 µM) | MIC50 ([1]; Staphylococcus epidermidis, 25 isolates, Summary of Results, read-out: MIC50): 0.125 µg/mL (≈ 0.136 µM) | MIC90 ([1]; Staphylococcus epidermidis, 25 isolates, Summary of Results, read-out: MIC90): 0.25 µg/mL (≈ 0.273 µM) | MIC ([1]; Staphylococcus epidermidis, 25 isolates, Summary of Results, read-out: Median MIC): 0.125 µg/mL (≈ 0.136 µM) | MIC50 ([1]; n=25 per group): 0.125 µg/mL (≈ 0.136 µM) | MIC90 ([1]; n=25 per group): 0.25 µg/mL (≈ 0.273 µM) | Range of MICs ([1]; n=25 per group): 0.03125 to 0.5 µg/mL | MIC50 (Pseudomonas aeruginosa; 25 isolates, Row 13): 64 µg/mL (≈ 69.8 µM) | Range of MICs (Pseudomonas aeruginosa; 25 isolates, Summary of Results, >128 was Replaced with 256): 4 to 256 µg/mL | MIC (Pseudomonas aeruginosa; Pseudomonas aeruginosa, 25 ocular isolates, read-out: Median MIC): 64 µg/mL (≈ 69.8 µM) | MIC (Pseudomonas aeruginosa; Pseudomonas aeruginosa, isolate 1—K1673, read-out: MIC): 32 µg/mL (≈ 34.9 µM) | MIC (Pseudomonas aeruginosa; Pseudomonas aeruginosa, isolate 2—K1668, read-out: MIC): 64 µg/mL (≈ 69.8 µM) | MIC (Pseudomonas aeruginosa; Pseudomonas aeruginosa, isolate 3—K1662, read-out: MIC): 64 µg/mL (≈ 69.8 µM) | MIC (Pseudomonas aeruginosa; Pseudomonas aeruginosa, isolate 4—K1657, read-out: MIC): 64 µg/mL (≈ 69.8 µM) | MIC (Pseudomonas aeruginosa; Pseudomonas aeruginosa, isolate 5—K1651, read-out: MIC): 128 µg/mL (≈ 140 µM) | MIC (Pseudomonas aeruginosa; Pseudomonas aeruginosa, isolate 6—K1649, read-out: MIC): 64 µg/mL (≈ 69.8 µM) | MIC (Pseudomonas aeruginosa; Pseudomonas aeruginosa, isolate 7—K1564, read-out: MIC): > 128 µg/mL | MIC (Pseudomonas aeruginosa; Pseudomonas aeruginosa, isolate 8—K1636, read-out: MIC): 4 µg/mL (≈ 4.36 µM) | MIC (Pseudomonas aeruginosa; Pseudomonas aeruginosa, isolate 9—K1634, read-out: MIC): 128 µg/mL (≈ 140 µM) | MIC (Pseudomonas aeruginosa; Pseudomonas aeruginosa, isolate 10—K1633, read-out: MIC): 64 µg/mL (≈ 69.8 µM) | MIC (Pseudomonas aeruginosa; Pseudomonas aeruginosa, isolate 11—K1632, read-out: MIC): 64 µg/mL (≈ 69.8 µM) | MIC (Pseudomonas aeruginosa; Pseudomonas aeruginosa, isolate 12—K1631, read-out: MIC): 64 µg/mL (≈ 69.8 µM) | MIC (Pseudomonas aeruginosa; Pseudomonas aeruginosa, isolate 13—K1629, read-out: MIC): 64 µg/mL (≈ 69.8 µM) | MIC (Pseudomonas aeruginosa; Pseudomonas aeruginosa, isolate 14—K1627, read-out: MIC): 64 µg/mL (≈ 69.8 µM) | MIC (Pseudomonas aeruginosa; Pseudomonas aeruginosa, isolate 15—K1626, read-out: MIC): 128 µg/mL (≈ 140 µM) | MIC (Pseudomonas aeruginosa; Pseudomonas aeruginosa, isolate 16—K1625, read-out: MIC): 64 µg/mL (≈ 69.8 µM) | MIC (Pseudomonas aeruginosa; Pseudomonas aeruginosa, isolate 17—K1562, read-out: MIC): 128 µg/mL (≈ 140 µM) | MIC (Pseudomonas aeruginosa; Pseudomonas aeruginosa, isolate 18—K1613, read-out: MIC): 32 µg/mL (≈ 34.9 µM) | MIC (Pseudomonas aeruginosa; Pseudomonas aeruginosa, isolate 19—K1553, read-out: MIC): 128 µg/mL (≈ 140 µM) | MIC (Pseudomonas aeruginosa; Pseudomonas aeruginosa, isolate 20—K1594, read-out: MIC): 64 µg/mL (≈ 69.8 µM) | MIC (Pseudomonas aeruginosa; Pseudomonas aeruginosa, isolate 21—K1588, read-out: MIC): 128 µg/mL (≈ 140 µM) | MIC (Pseudomonas aeruginosa; Pseudomonas aeruginosa, isolate 22—K1554, read-out: MIC): 128 µg/mL (≈ 140 µM) | MIC (Pseudomonas aeruginosa; Pseudomonas aeruginosa, isolate 23—K1580, read-out: MIC): 32 µg/mL (≈ 34.9 µM) | MIC (Pseudomonas aeruginosa; Pseudomonas aeruginosa, isolate 24—K1577, read-out: MIC): 64 µg/mL (≈ 69.8 µM) | MIC (Pseudomonas aeruginosa; Pseudomonas aeruginosa, isolate 25—K1576, read-out: MIC): 128 µg/mL (≈ 140 µM) | MIC (Pseudomonas aeruginosa; Pseudomonas aeruginosa, n=25 per group, read-out: Median MIC): 64 µg/mL (≈ 69.8 µM) | MIC50 (Pseudomonas aeruginosa; Pseudomonas aeruginosa, 25 isolates, Summary of Results, read-out: MIC50): 64 µg/mL (≈ 69.8 µM) | MIC90 (Pseudomonas aeruginosa; Pseudomonas aeruginosa, 25 isolates, Summary of Results, read-out: MIC90): 128 µg/mL (≈ 140 µM) | MIC (Pseudomonas aeruginosa; Pseudomonas aeruginosa, 25 isolates, Summary of Results, read-out: Median MIC): 64 µg/mL (≈ 69.8 µM) | MIC50 (Pseudomonas aeruginosa; n=25 per group): 64 µg/mL (≈ 69.8 µM) | MIC90 (Pseudomonas aeruginosa; n=25 per group): 128 µg/mL (≈ 140 µM) | Range of MICs (Pseudomonas aeruginosa; n=25 per group): 4 to 256 µg/mL
